Test results reported in ChEMBL document CHEMBL5291721, “A preclinical secondary pharmacology resource illuminates target-adverse drug reaction associations of marketed drugs” (Nat Commun, 2023).

What was measured:
D(1A) dopamine receptor = D(1A) dopamine receptor (Homo sapiens, UniProt P21728); type: functional, cell-based
[1] = target: T1, 5-hydroxytryptamine receptor 3A (Homo sapiens, UniProt P46098); type: functional
T1 sequence (P46098 whole entry): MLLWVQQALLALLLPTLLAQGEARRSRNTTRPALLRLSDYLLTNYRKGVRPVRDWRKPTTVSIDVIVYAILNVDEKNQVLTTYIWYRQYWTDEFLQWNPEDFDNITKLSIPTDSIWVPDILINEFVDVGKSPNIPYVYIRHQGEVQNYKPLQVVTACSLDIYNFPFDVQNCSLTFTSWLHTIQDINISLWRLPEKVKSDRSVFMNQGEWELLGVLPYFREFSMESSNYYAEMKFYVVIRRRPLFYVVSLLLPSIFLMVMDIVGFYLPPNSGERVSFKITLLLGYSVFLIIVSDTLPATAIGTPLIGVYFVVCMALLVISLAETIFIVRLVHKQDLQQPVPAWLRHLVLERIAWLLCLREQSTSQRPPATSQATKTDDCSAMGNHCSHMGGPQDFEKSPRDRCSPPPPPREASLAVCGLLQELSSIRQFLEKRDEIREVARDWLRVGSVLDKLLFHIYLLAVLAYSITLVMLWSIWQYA

[2] = target: T2, Neuropeptide Y receptor type 1 (Homo sapiens, UniProt P25929)
T2 sequence (P25929 whole entry): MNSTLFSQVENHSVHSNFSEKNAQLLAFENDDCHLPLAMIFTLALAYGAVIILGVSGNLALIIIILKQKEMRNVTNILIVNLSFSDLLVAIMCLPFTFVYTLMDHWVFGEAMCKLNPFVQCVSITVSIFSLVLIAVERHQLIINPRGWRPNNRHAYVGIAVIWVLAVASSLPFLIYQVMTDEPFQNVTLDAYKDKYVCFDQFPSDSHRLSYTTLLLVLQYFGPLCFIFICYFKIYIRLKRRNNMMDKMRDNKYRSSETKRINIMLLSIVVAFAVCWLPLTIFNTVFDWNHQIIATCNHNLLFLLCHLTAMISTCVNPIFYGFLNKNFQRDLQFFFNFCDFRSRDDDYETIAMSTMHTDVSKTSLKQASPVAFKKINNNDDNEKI

[3] = target: Glutamate receptor ionotropic, NMDA 1 (Rattus norvegicus, UniProt P35439)
Melanocortin receptor 3 = Melanocortin receptor 3 (Homo sapiens, UniProt P41968)
Histamine H1 receptor = Histamine H1 receptor (Homo sapiens, UniProt P35367)
[4] = target: T3, Cholecystokinin receptor type A (Homo sapiens, UniProt P32238)
T3 sequence (P32238 whole entry): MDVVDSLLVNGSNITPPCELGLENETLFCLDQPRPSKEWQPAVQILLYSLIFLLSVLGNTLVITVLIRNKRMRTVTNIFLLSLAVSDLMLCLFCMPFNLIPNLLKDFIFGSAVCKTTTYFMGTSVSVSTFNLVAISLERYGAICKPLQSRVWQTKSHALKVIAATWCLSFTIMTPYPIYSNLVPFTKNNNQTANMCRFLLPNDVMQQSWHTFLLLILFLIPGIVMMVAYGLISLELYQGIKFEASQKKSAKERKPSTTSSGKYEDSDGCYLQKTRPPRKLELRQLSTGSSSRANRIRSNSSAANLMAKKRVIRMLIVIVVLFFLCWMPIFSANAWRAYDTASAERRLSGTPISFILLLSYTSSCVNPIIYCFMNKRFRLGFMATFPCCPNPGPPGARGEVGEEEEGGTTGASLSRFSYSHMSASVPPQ

[5] = target: 3',5'-cyclic-AMP phosphodiesterase 4D (Homo sapiens, UniProt Q08499); type: functional
[6] = target: Sodium-dependent noradrenaline transporter (Homo sapiens, UniProt P23975)
[7] = target: T4, 5-hydroxytryptamine receptor 1A (Homo sapiens, UniProt P08908); type: functional, cell-based
T4 sequence (P08908 whole entry): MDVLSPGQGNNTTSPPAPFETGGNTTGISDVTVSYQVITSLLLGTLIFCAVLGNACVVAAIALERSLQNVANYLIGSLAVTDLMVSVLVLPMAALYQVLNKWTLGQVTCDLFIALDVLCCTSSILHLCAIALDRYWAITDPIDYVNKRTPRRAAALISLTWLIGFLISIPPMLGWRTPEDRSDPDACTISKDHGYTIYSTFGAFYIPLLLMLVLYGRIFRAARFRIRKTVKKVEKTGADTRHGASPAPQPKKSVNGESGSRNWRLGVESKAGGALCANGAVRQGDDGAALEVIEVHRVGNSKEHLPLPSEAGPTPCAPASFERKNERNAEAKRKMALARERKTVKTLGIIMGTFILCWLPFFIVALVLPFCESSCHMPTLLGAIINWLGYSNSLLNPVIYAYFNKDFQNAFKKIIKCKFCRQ

[8] = target: T5, Alpha-1A adrenergic receptor (Homo sapiens, UniProt P35348); type: functional, cell-based
T5 sequence (P35348 whole entry): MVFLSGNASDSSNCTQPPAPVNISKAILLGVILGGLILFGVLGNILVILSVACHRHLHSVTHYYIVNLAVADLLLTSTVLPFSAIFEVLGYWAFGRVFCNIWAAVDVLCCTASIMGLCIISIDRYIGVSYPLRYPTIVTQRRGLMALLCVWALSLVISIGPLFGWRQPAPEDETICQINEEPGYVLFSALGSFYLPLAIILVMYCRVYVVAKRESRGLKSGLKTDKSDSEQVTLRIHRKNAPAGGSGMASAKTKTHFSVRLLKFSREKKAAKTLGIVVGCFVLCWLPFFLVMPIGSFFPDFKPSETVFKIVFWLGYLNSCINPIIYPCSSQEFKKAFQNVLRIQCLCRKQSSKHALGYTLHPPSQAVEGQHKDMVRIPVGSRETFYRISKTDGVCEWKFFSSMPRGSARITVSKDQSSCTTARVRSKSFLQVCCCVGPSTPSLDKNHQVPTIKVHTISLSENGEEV
Note: assay procedure not described here.

Melanocortin receptor 3, sequence (P41968 whole entry): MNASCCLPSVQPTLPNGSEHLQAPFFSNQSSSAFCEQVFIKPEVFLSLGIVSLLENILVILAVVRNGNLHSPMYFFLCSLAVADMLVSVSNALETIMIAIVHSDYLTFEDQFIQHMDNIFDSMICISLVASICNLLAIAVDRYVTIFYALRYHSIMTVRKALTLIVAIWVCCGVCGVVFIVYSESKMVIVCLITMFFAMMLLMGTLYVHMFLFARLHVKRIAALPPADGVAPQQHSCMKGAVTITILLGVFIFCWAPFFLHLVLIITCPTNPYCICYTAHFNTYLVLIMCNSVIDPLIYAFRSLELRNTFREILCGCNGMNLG
Histamine H1 receptor, sequence (P35367 whole entry): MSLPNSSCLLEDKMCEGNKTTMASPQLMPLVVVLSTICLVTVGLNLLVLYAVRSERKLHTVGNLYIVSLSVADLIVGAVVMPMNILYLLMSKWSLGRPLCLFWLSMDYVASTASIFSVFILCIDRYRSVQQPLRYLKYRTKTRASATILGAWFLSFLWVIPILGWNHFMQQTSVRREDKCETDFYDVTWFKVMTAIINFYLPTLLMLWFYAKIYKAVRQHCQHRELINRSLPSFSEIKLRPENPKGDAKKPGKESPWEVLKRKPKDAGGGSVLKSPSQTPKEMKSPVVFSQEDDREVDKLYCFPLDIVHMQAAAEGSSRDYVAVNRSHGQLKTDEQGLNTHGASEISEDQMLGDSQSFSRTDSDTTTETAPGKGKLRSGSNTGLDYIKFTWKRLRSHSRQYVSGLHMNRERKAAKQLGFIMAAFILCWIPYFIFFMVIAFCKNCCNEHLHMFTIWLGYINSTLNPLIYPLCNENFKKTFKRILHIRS
3',5'-cyclic-AMP phosphodiesterase 4D, sequence (Q08499 whole entry): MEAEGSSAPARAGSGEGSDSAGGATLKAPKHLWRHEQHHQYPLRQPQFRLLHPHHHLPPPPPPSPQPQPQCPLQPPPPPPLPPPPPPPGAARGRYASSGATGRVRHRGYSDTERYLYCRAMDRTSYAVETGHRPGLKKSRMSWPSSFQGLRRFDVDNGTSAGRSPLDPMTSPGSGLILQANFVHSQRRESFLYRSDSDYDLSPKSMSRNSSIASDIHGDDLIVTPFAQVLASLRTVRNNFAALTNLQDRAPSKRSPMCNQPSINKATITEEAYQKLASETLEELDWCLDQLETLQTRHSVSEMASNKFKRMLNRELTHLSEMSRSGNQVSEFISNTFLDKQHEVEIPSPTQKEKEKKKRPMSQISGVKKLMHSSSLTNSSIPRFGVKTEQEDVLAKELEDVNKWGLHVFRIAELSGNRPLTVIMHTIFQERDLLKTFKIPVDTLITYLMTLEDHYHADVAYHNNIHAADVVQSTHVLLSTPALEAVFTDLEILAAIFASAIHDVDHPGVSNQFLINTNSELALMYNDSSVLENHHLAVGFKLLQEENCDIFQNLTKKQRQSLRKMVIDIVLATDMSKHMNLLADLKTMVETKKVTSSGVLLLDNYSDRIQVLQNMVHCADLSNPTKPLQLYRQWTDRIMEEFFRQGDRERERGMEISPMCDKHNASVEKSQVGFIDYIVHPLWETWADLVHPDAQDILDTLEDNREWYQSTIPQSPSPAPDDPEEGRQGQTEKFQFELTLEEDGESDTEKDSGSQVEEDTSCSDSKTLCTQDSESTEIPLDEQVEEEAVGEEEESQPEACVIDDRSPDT
Sodium-dependent noradrenaline transporter, sequence (P23975 whole entry): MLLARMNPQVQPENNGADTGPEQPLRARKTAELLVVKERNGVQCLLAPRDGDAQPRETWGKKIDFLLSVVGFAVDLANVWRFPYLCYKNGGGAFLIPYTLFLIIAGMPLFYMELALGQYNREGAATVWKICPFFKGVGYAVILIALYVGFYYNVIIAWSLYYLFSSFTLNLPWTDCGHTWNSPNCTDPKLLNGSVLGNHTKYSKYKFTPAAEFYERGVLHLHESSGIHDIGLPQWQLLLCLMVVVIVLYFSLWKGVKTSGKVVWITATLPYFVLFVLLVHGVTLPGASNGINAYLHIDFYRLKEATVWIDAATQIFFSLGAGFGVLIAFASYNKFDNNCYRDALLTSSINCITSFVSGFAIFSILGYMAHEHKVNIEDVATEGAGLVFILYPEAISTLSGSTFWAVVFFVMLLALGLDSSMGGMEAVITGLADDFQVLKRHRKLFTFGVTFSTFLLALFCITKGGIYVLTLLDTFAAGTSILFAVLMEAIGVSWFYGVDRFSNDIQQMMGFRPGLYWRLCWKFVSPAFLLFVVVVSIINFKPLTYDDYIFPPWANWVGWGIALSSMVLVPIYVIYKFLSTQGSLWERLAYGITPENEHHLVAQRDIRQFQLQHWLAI
D(1A) dopamine receptor, sequence (P21728 whole entry): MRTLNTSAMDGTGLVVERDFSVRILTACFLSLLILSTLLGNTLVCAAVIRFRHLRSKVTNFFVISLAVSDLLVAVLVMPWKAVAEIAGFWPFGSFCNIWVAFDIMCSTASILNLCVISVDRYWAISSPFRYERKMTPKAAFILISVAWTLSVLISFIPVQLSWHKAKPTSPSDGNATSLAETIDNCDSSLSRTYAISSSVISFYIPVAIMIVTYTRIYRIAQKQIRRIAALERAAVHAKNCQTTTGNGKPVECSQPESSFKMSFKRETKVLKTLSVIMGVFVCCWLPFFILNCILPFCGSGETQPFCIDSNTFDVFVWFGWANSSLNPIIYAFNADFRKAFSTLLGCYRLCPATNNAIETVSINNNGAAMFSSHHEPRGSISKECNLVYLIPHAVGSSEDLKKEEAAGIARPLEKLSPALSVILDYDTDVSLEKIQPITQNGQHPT

Structure (SMILES)	AC50 (D(1A) dopamine receptor) [µM]	AC50 [1] [µM]	AC50 [2] [µM]	AC50 [3] [µM]	AC50 (Melanocortin receptor 3) [µM]	AC50 (Histamine H1 receptor) [µM]	AC50 [4] [µM]	AC50 [5] [µM]	AC50 [6] [µM]	AC50 [7] [µM]	AC50 [8] [µM]
NS(=O)(=O)c1ccc(N2CCCCS2(=O)=O)cc1	> 30	> 30	> 30	> 30	> 30	> 30	> 30	> 30	> 30	> 30	–
OCC(O)COc1ccc(Cl)cc1 (stereo unspecified)	> 10	> 30	> 10	> 10	> 10	> 10	> 10	> 30	> 10	> 10	–
O=C(O[C@H]1C[N+]2(CCCOc3ccccc3)CCC1CC2)C(O)(c1cccs1)c1cccs1 [ACLIDINIUM BROMIDE]	–	> 30	> 30	> 10	> 30	4.5	> 30	> 30	> 10	–	–
O=C(O)CCCC[C@@H]1SC[C@@H]2NC(=O)N[C@@H]21 [BIOTIN]	> 10	> 30	> 10	–	> 10	> 10	> 10	> 30	> 10	> 10	–
CC(=O)OCC1=C(C(=O)O)N2C(=O)[C@@H](NC(=O)CSc3ccncc3)[C@H]2SC1 [CEPHAPIRIN]	> 10	> 30	> 10	> 10	> 10	> 10	> 10	> 30	> 10	> 10	–
CC1=C(C(=O)O)N2C(=O)[C@@H](NC(=O)[C@H](N)C3=CCC=CC3)[C@H]2SC1 [CEPHRADINE]	> 30	> 30	> 30	> 30	> 30	> 30	> 30	> 30	> 30	> 30	–
Nc1nc(Cl)nc2c1ncn2[C@@H]1O[C@H](CO)[C@@H](O)[C@@H]1F [CLOFARABINE]	> 30	> 30	> 30	> 10	> 30	> 30	> 30	0.17	> 30	> 30	–
CN(C)CCOC(=O)C(c1ccccc1)C1(O)CCCC1 (stereo unspecified) [CYCLOPENTOLATE]	> 10	> 30	> 10	> 10	> 10	> 30	> 10	> 30	> 30	> 10	–
COC(=O)[C@H]1[C@H]2C[C@@H]3c4[nH]c5ccccc5c4CCN3C[C@H]2C[C@@H](OC(=O)c2cc(OC)c(OC)c(OC)c2)[C@@H]1OC [DESERPIDINE]	> 10	> 30	> 30	> 10	> 30	> 10	34.4	> 30	> 10	> 10	–
CCc1ccc(C(=O)C(C)CN2CCCCC2)cc1 (stereo unspecified) [EPERISONE]	> 30	> 30	> 30	> 30	> 30	–	> 30	> 30	> 30	> 30	> 30
Cc1cnc(Nc2ccc(OCCN3CCCC3)cc2)nc1Nc1cccc(S(=O)(=O)NC(C)(C)C)c1 [FEDRATINIB]	> 10	> 30	> 30	> 10	> 30	> 10	> 30	0.22	0.24	–	–
CCOC(=O)C1=C(C)NC(C)=C(C(=O)OC)C1c1cccc(Cl)c1Cl (stereo unspecified) [FELODIPINE]	> 10	> 10	> 30	> 10	> 30	–	> 30	3.2	> 10	> 10	> 30
CC(=O)OCC(=O)[C@@]1(O)CC[C@H]2[C@@H]3CCC4=CC(=O)CC[C@]4(C)[C@@]3(F)[C@@H](O)C[C@@]21C [FLUDROCORTISONE ACETATE]	> 30	> 30	> 30	> 30	> 30	–	> 30	> 30	> 30	> 30	> 30
CC(=O)[C@@]1(O)CC[C@H]2[C@@H]3C[C@H](C)C4=CC(=O)C=C[C@]4(C)[C@@]3(F)[C@@H](O)C[C@@]21C [FLUOROMETHOLONE]	> 10	> 30	> 10	> 10	> 10	–	> 10	> 30	> 10	> 10	> 30
CC1Cc2ccccc2N1NC(=O)c1ccc(Cl)c(S(N)(=O)=O)c1 (stereo unspecified) [INDAPAMIDE]	> 10	> 30	> 30	> 10	> 30	–	> 30	> 10	> 30	> 30	> 30
CC(C)(C)NCC(O)COc1cccc2c1CC(O)C(O)C2 (stereo unspecified) [NADOLOL]	> 10	> 30	> 10	> 10	> 10	–	> 10	> 30	> 10	> 10	7.7
CC(C(=O)O)c1ccc(C(=O)c2ccccc2)s1 (stereo unspecified) [TIAPROFENIC ACID]	> 10	> 30	> 10	> 10	> 10	–	> 10	> 30	> 10	> 10	> 30
CCN(C(C)=O)c1cccc(-c2ccnc3c(C#N)cnn23)c1 [ZALEPLON]	> 10	> 30	> 30	> 10	> 30	–	> 30	> 30	> 30	> 10	> 30
